Paper PMC10653770 (Journal of Enzyme Inhibition and Medicinal Chemistry, 2023)

Legend:
SH − SY5Y cells [1] = details: for toxicity towards SHSY5Y cells: within the tested concentration range
[2] = target: AChE − induced Aβ1 − 42 aggregation (Homo sapiens, UniProt P22303); format: biochemical; details: co-incubation with Aβ1-42 and AChE for 24h; 0.1 μM and 1 μM compound
in vitro = details: human
hAChE = hAChE (Homo sapiens, UniProt P22303); assay: Kinetic profiling of AChE inhibition; format: biochemical; details: Lineweaver–Burk plot
Sequence of hAChE (P22303 32-614): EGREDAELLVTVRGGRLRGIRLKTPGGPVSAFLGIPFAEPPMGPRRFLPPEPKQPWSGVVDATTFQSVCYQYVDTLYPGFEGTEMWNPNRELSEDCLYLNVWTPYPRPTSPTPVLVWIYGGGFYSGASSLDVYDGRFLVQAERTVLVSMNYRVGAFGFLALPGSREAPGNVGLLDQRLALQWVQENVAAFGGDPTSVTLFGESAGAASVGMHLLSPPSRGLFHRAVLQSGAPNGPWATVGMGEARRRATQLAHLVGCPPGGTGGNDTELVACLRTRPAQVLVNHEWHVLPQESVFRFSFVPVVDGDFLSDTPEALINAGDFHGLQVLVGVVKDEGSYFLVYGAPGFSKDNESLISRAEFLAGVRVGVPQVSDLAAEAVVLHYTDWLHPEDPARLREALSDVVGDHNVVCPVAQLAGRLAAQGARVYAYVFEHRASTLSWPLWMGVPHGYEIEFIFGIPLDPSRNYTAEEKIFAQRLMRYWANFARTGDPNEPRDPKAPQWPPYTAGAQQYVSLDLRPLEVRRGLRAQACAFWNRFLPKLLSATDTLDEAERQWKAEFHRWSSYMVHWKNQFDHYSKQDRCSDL

SH − SY5Y cells [3] = format: cell-based, human; details: 1 μM compound; Aβ1 − 42 20 μM, 48 h

Sequence of AChE − induced Aβ1 − 42 aggregation (P22303 32-614): as above

Row | SMILES | toxicity towards SHSY5Y cells (SH − SY5Y cells [1]) | AChE − induced Aβ1 − 42 aggregation [2] | viability at 10 µM (in vitro) | cytotoxicity in SHSY5Y cells (SH − SY5Y cells [1]; 0.1 to 1 μM, 48h incubation) | type of AChE inhibition (hAChE) | cellular recovery against Aβ1 − 42−induced damage (SH − SY5Y cells [3])
1 | C=CCn1c2cc(OC(=O)CCCCN3CCN(Cc4ccc(F)cc4)CC3)ccc2c2ccnc(C)c21 [Compound 17d, 9-allyl-1-methyl-9H-pyrido[3,4-b]indol-7-yl 5–(4-(4-fluorobenzyl)piperazin-1-yl)pentanoate] | weak toxicity | significant reduction in Aβ1 − 42 aggregation | > 79% | – | – | –
2 | C=CCn1c2cc(OC(=O)CCCCN3CCN(Cc4ccccc4)CC3)ccc2c2ccnc(C)c21 [Compound 13, 9-allyl-1-methyl-9H-pyrido[3,4-b]indol-7-yl 5–(4-benzylpiperazin-1-yl)pentanoate] | weak toxicity | significant reduction in Aβ1 − 42 aggregation | > 79% | negligible cytotoxicity | mixed − type inhibition | exceptional cellular recovery
